Measured values published in PubChem BioAssay (NCI).
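Exposure lasted 48 hours, with cells grown in 96-well plates and compounds tested at five concentrations. TGI: total growth inhibition.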

What was measured:
Assay in all cases: DTP human tumour cell line panel, 48 h
CCRF-CEM leukemia = system: CCRF-CEM leukemia
SK-MEL-28 melanoma = system: SK-MEL-28 melanoma
SNB-75 CNS = system: SNB-75 CNS
OVCAR-3 ovarian = system: OVCAR-3 ovarian
HOP-92 NSCLC = system: HOP-92 NSCLC
NCI-H522 lung = system: NCI-H522 lung
HCT-15 colon = system: HCT-15 colon
NCI-H226 lung = system: NCI-H226 lung
OVCAR-4 ovarian = system: OVCAR-4 ovarian
EKVX NSCLC = system: EKVX NSCLC
CAKI-1 renal = system: CAKI-1 renal
SF-295 CNS = system: SF-295 CNS
A498 renal = system: A498 renal
IGROV1 ovarian = system: IGROV1 ovarian
MCF7 breast = system: MCF7 breast
OVCAR-8 ovarian = system: OVCAR-8 ovarian
UACC-257 melanoma = system: UACC-257 melanoma
HCC-2998 colon = system: HCC-2998 colon
RXF 393 renal = system: RXF 393 renal
DLD-1 colon = system: DLD-1 colon

Structure (SMILES) | TGI (CCRF-CEM leukemia) [µM] | TGI (SK-MEL-28 melanoma) [µM] | TGI (SNB-75 CNS) [µM] | TGI (OVCAR-3 ovarian) [µM] | TGI (HOP-92 NSCLC) [µM] | TGI (NCI-H522 lung) [µM] | TGI (HCT-15 colon) [µM] | TGI (NCI-H226 lung) [µM] | TGI (OVCAR-4 ovarian) [µM] | TGI (EKVX NSCLC) [µM] | TGI (CAKI-1 renal) [µM] | TGI (SF-295 CNS) [µM] | TGI (A498 renal) [µM] | TGI (IGROV1 ovarian) [µM] | TGI (MCF7 breast) [µM] | TGI (OVCAR-8 ovarian) [µM] | TGI (UACC-257 melanoma) [µM] | TGI (HCC-2998 colon) [µM] | TGI (RXF 393 renal) [µM] | TGI (DLD-1 colon) [µM]
NC(=O)NC1NC(=O)NC1=O (centres undefined) | > 100 | > 100 | > 100 | > 100 | > 100 | > 100 | > 100 | > 100 | > 100 | > 100 | > 100 | > 100 | > 100 | > 100 | > 100 | > 100 | > 100 | > 100 | > 100 | –
CCC(C)C(=O)OC1C(=O)OC2CC3C(C)=CC(=O)C(O)C3(C)C3C4(O)OCC23C1C(C)C4O (centres undefined) | 0.0393 | 0.106 | 0.113 | 0.124 | 0.205 | < 0.0212 | 0.944 | < 0.031 | 0.262 | – | 7.44 | 0.126 | 3.3 | 0.175 | > 100 | 0.0634 | 1.34 | 0.227 | – | –
CCOC(=O)/C=C/CC(C)(C)COC(C)=O | > 10 | > 10 | > 10 | > 10 | – | > 10 | > 10 | > 10 | > 10 | – | – | > 10 | – | – | > 10 | – | > 10 | > 10 | > 10 | –
CCC1CN2CCc3cc(OC)c(OC)cc3C2CC1CC1c2cc(OC)c(OC)cc2CCN1C(=O)C(N)Cc1ccccc1 (centres undefined) | 10.2 | 10.3 | 10.6 | 15.4 | 6.41 | 1.73 | 10.9 | – | – | 4.37 | 11.2 | 10.3 | 11 | – | – | 11.1 | 11.6 | 5.66 | 4.37 | 14.1
NCC(Cl)C(O)c1cnc(N)[nH]1 (centres undefined) | > 83.6 | > 76.6 | 38.8 | 16.2 | 91.4 | 7.1 | > 63.2 | 17.6 | 10.2 | 8.53 | 4.35 | 52.6 | 1.01 | 4.34 | > 65.5 | 15.5 | 32 | 5.12 | 4.7 | 29.2
CC(C)=CCc1c(O)cc(O)c2c1OC(c1ccc(O)cc1)C(O)C2=O (centres undefined) | – | 50.7 | 99 | 36.7 | 39.7 | 42 | 55.7 | 56.7 | > 100 | 56.3 | – | 67 | > 100 | 88.9 | – | > 100 | > 100 | 56.3 | 49.9 | > 100
COc1ccc(C2C(C(=O)O)=C(CO)Oc3cc4c(cc32)OCO4)cc1 (centres undefined) | – | > 100 | > 100 | > 100 | > 100 | – | > 100 | – | > 100 | > 100 | > 100 | > 100 | – | > 100 | – | > 100 | > 100 | – | > 100 | > 100
CCOC(=O)C1(CO)CSCCSC1 | > 100 | > 100 | > 100 | – | > 100 | > 100 | > 100 | > 100 | – | – | – | > 100 | > 100 | – | > 100 | > 100 | > 100 | > 100 | > 100 | –
CCN(CC)C(=O)c1cc(OC(C)C)ccc1-c1c(C)cc(OC(C)C)c(OC)c1OC | > 100 | > 100 | – | > 100 | – | > 100 | > 100 | > 100 | > 100 | > 100 | > 100 | – | – | > 100 | – | > 100 | – | > 100 | > 100 | > 100
CC(=O)OC1C=C(C=O)C(O)(C=O)C2(C)CCCC(C)(C)C12 (centres undefined) | 0.706 | 3.42 | 5.82 | 2.15 | 2.98 | 1.16 | 1.7 | 4.62 | 4.01 | 6.13 | 3.15 | 6.31 | 2.31 | 6.05 | 5.49 | 4.6 | 5.68 | 5.75 | 1.01 | 3.77
